In ChEMBL document CHEMBL4507292 (2021):

Legend:
[1] = target: Aurora kinase A (Homo sapiens) (UniProt O14965); details: Compound concentration 1000.0 nM
[2] = target: Muscarinic acetylcholine receptor M3 (Homo sapiens) (UniProt P20309); details: Compound concentration 10.0 uM
[3] = target: Serine/threonine-protein kinase PAK 1 (Homo sapiens) (UniProt Q13153); details: Compound concentration 1000.0 nM
[4] = target: Myosin light chain kinase, smooth muscle (Homo sapiens) (UniProt Q15746); details: Compound concentration 1000.0 nM
[5] = target: Tyrosine-protein kinase JAK1 (Homo sapiens) (UniProt P23458); details: Compound concentration 1000.0 nM
[6] = target: Dual specificity protein kinase CLK1 (Homo sapiens) (UniProt P49759); details: Compound concentration 1000.0 nM
[7] = target: Serine/threonine-protein kinase D1 (Homo sapiens) (UniProt Q15139); details: Compound concentration 1000.0 nM
[8] = target: Inhibitor of nuclear factor kappa-B kinase subunit beta (Homo sapiens) (UniProt O14920); details: Compound concentration 1000.0 nM
[9] = target: Serine/threonine-protein kinase D2 (Homo sapiens) (UniProt Q9BZL6); details: Compound concentration 1000.0 nM
[10] = target: Insulin receptor-related protein (Homo sapiens) (UniProt P14616); details: Compound concentration 1000.0 nM
[11] = target: Angiopoietin-1 receptor (Homo sapiens) (UniProt Q02763); details: Compound concentration 1000.0 nM
[12] = target: Mitogen-activated protein kinase kinase kinase 6 (Homo sapiens) (UniProt O95382); details: Compound concentration 1000.0 nM
[13] = target: AP2-associated protein kinase 1 (Homo sapiens) (UniProt Q2M2I8); details: Compound concentration 1000.0 nM
[14] = target: Calcium/calmodulin-dependent protein kinase kinase 1 (Homo sapiens) (UniProt Q8N5S9); details: Compound concentration 1000.0 nM
[15] = target: cAMP-dependent protein kinase catalytic subunit PRKX (Homo sapiens) (UniProt P51817); details: Compound concentration 1000.0 nM
[16] = target: Cyclin-dependent kinase 4 (Homo sapiens) (UniProt P11802); details: Compound concentration 1000.0 nM
[17] = target: Dual specificity tyrosine-phosphorylation-regulated kinase 2 (Homo sapiens) (UniProt Q92630); details: Compound concentration 1000.0 nM
[18] = target: 1-phosphatidylinositol 3-phosphate 5-kinase (Homo sapiens) (UniProt Q9Y2I7); details: Compound concentration 1000.0 nM
[19] = target: Alpha-2B adrenergic receptor (Homo sapiens, UniProt P18089); assay: GPCRScan assay: inhibition of Alpha2B; set-up: radioligand conc. used [nm] 1.5 – 2.0, parental cells HEKT
[20] = target: Serine/threonine-protein kinase ICK (Homo sapiens) (UniProt Q9UPZ9); details: Compound concentration 1000.0 nM
[21] = target: GABA-A receptor; anion channel (Rattus norvegicus) (UniProt O09028+P15431+P18506+P18508+P19969+P20236+P23574+P23576+P28471+P28473+P30191+P62813+P63079+P63138+Q91ZM7+Q9ES14); details: Compound concentration 10.0 uM
[22] = target: Serine/threonine-protein kinase 24 (Homo sapiens) (UniProt Q9Y6E0); details: Compound concentration 1000.0 nM
[23] = system: Hepatocyte growth factor receptor (Homo sapiens), P08581 [Y1235D]; details: Compound concentration 1000.0 nM
[24] = target: Mitogen-activated protein kinase kinase kinase 19 (Homo sapiens) (UniProt Q56UN5); details: Compound concentration 1000.0 nM
[25] = target: Dual serine/threonine and tyrosine protein kinase (Homo sapiens) (UniProt Q6XUX3); details: Compound concentration 1000.0 nM
[26] = target: Sodium-dependent serotonin transporter (Homo sapiens, UniProt P31645); details: Compound concentration 10.0 uM
[27] = target: STE20/SPS1-related proline-alanine-rich protein kinase (Homo sapiens) (UniProt Q9UEW8); details: Compound concentration 1000.0 nM
[28] = target: Serine/threonine-protein kinase TNNI3K (Homo sapiens) (UniProt Q59H18); details: Compound concentration 1000.0 nM
[29] = target: Tyrosine-protein kinase ZAP-70 (Homo sapiens) (UniProt P43403); details: Compound concentration 1000.0 nM
[30] = target: Mitogen-activated protein kinase 7 (Homo sapiens) (UniProt Q13164); details: Compound concentration 1000.0 nM
[31] = target: TGF-beta receptor type-2 (Homo sapiens) (UniProt P37173); details: Compound concentration 1000.0 nM
[32] = system: Receptor-type tyrosine-protein kinase FLT3 (Homo sapiens), P36888 [UNDEFINED MUTATION]; details: Compound concentration 1000.0 nM
[33] = target: Bone morphogenetic protein receptor type-2 (Homo sapiens) (UniProt Q13873); details: Compound concentration 1000.0 nM
[34] = target: Dual specificity protein kinase CLK3 (Homo sapiens) (UniProt P49761); details: Compound concentration 1000.0 nM
[35] = target: Activin receptor type-1-like (Homo sapiens) (UniProt P37023); details: Compound concentration 1000.0 nM
[36] = target: Serine/threonine-protein kinase TAO1 (Homo sapiens) (UniProt Q7L7X3); details: Compound concentration 1000.0 nM
[37] = system: Fibroblast growth factor receptor 3 (Homo sapiens), P22607 [G697C]; details: Compound concentration 1000.0 nM
D(1B) dopamine receptor = D(1B) dopamine receptor (Homo sapiens, UniProt P21918); details: Compound concentration 10.0 uM
[38] = target: Non-receptor tyrosine-protein kinase TNK1 (Homo sapiens) (UniProt Q13470); details: Compound concentration 1000.0 nM
[39] = target: Delta-type opioid receptor (Homo sapiens) (UniProt P41143); details: Compound concentration 10.0 uM
[40] = target: Hormonally up-regulated neu tumor-associated kinase (Homo sapiens) (UniProt P57058); details: Compound concentration 1000.0 nM
[41] = target: Mast/stem cell growth factor receptor Kit (Homo sapiens) (UniProt P10721); details: Compound concentration 1000.0 nM
[42] = target: Activin receptor type-1 (Homo sapiens) (UniProt Q04771); details: Compound concentration 1000.0 nM
[43] = target: Receptor-interacting serine/threonine-protein kinase 4 (Homo sapiens) (UniProt P57078); details: Compound concentration 1000.0 nM

Sequence of cAMP-dependent protein kinase catalytic subunit PRKX (Homo sapiens) (P51817 whole entry): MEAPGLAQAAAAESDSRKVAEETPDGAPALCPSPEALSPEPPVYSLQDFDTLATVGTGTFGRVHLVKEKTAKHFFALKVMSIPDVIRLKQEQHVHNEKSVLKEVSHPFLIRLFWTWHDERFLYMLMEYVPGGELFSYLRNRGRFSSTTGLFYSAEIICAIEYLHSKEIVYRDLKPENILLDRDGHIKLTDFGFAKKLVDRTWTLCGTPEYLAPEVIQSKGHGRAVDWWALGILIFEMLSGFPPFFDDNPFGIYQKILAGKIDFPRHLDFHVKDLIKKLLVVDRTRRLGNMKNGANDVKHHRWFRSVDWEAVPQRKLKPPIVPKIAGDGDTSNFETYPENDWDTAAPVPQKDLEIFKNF
Sequence of Receptor-type tyrosine-protein kinase FLT3 (Homo sapiens), P36888 [UNDEFINED MUTATION] (P36888 whole entry, looked up, change not shown): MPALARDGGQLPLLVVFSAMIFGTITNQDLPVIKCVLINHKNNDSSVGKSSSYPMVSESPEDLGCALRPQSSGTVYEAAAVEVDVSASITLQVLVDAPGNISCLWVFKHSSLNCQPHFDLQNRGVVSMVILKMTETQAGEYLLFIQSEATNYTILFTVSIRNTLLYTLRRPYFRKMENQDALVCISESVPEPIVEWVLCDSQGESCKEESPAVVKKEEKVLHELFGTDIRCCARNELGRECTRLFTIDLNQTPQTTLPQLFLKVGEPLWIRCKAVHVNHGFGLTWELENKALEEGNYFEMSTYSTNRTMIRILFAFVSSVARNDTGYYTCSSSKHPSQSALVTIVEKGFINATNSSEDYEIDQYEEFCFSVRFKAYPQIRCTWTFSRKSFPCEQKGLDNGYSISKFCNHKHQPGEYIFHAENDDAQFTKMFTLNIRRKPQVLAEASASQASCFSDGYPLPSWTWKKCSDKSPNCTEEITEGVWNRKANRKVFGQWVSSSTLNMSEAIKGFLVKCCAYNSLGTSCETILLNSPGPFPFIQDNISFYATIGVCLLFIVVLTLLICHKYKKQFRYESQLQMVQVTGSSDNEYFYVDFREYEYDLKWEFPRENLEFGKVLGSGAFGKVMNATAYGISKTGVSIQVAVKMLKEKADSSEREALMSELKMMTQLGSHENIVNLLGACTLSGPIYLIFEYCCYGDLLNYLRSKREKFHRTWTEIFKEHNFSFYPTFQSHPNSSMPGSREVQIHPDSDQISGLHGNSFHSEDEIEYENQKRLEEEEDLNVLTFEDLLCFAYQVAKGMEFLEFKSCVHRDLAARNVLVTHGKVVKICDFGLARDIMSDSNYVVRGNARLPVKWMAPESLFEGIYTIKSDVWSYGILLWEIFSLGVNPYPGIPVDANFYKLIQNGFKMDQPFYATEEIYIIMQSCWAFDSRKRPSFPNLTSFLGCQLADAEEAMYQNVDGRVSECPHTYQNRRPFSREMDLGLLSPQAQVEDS
Sequence of Muscarinic acetylcholine receptor M3 (Homo sapiens) (P20309 whole entry, looked up): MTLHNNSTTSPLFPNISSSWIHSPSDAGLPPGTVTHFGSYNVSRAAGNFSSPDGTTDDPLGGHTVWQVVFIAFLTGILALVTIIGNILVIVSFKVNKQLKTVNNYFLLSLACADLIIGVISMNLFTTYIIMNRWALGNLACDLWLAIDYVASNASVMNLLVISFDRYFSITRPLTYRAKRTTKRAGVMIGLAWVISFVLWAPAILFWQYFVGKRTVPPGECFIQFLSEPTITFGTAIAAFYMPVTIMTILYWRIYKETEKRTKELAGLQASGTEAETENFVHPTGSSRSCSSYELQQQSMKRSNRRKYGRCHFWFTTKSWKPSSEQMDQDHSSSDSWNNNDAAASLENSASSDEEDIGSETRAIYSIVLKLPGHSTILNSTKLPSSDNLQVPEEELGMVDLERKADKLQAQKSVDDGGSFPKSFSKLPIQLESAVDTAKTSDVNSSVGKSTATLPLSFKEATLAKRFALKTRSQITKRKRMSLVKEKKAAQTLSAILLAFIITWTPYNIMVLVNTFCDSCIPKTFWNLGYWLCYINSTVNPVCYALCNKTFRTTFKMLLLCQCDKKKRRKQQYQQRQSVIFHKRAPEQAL
Sequence of Serine/threonine-protein kinase D1 (Homo sapiens) (Q15139 whole entry): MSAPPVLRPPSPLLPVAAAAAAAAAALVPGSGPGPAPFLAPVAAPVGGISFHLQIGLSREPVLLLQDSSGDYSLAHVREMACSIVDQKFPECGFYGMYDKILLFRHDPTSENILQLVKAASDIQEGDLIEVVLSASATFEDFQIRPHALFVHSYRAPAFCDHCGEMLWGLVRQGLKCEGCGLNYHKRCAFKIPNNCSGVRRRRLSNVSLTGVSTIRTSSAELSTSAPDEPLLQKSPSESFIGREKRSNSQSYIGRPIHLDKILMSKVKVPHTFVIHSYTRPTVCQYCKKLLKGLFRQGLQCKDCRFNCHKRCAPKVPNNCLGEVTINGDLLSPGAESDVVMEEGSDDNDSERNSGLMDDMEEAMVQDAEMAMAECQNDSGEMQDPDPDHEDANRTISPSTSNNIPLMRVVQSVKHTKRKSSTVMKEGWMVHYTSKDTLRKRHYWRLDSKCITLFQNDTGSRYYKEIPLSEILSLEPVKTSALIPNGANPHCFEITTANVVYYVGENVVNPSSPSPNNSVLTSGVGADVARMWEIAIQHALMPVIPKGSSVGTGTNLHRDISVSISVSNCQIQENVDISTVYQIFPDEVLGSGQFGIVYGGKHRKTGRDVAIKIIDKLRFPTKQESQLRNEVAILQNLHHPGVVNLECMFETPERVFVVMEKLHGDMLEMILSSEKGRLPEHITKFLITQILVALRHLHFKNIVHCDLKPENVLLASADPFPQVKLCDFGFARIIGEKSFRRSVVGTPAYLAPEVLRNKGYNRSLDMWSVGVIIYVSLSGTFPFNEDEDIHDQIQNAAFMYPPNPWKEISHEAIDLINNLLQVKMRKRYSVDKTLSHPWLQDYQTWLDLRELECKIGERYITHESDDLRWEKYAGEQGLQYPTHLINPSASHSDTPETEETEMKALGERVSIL
Sequence of Dual specificity tyrosine-phosphorylation-regulated kinase 2 (Homo sapiens) (Q92630 whole entry): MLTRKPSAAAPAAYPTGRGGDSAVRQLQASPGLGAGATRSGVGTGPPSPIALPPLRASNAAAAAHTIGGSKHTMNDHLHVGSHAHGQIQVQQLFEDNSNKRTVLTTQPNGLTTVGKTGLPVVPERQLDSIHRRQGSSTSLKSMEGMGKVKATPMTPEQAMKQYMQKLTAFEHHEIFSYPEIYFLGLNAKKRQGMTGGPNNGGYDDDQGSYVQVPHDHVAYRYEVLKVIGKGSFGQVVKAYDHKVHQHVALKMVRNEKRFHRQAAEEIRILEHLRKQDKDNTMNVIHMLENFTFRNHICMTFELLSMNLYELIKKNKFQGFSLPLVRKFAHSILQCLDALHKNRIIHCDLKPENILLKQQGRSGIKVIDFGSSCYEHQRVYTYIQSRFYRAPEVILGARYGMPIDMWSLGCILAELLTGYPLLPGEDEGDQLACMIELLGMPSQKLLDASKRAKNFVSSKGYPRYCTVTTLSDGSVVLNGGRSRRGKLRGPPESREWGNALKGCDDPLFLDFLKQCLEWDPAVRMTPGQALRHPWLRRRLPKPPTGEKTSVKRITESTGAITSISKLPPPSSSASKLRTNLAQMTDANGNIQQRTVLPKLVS
Sequence of Mitogen-activated protein kinase 7 (Homo sapiens) (Q13164 2-816 limits assumed): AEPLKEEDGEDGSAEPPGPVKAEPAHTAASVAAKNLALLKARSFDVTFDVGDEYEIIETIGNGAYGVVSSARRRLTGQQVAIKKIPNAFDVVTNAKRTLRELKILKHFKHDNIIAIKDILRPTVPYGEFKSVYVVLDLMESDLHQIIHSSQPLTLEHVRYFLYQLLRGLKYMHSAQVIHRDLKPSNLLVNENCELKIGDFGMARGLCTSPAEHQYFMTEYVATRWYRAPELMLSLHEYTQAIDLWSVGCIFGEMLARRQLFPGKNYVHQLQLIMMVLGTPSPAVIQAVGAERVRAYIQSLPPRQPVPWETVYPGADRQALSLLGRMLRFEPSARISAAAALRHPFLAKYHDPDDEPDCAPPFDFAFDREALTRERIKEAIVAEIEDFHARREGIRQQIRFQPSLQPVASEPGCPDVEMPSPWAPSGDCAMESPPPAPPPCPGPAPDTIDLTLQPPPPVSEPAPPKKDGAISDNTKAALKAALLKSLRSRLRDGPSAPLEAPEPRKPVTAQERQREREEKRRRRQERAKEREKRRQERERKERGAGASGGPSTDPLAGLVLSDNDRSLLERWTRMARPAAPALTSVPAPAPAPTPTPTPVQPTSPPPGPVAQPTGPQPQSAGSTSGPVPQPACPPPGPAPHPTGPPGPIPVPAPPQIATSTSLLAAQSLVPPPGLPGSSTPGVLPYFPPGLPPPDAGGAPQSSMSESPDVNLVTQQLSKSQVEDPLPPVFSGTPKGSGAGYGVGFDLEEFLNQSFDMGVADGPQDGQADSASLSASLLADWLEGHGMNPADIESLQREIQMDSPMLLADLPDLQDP
Sequence of Calcium/calmodulin-dependent protein kinase kinase 1 (Homo sapiens) (Q8N5S9 whole entry, looked up): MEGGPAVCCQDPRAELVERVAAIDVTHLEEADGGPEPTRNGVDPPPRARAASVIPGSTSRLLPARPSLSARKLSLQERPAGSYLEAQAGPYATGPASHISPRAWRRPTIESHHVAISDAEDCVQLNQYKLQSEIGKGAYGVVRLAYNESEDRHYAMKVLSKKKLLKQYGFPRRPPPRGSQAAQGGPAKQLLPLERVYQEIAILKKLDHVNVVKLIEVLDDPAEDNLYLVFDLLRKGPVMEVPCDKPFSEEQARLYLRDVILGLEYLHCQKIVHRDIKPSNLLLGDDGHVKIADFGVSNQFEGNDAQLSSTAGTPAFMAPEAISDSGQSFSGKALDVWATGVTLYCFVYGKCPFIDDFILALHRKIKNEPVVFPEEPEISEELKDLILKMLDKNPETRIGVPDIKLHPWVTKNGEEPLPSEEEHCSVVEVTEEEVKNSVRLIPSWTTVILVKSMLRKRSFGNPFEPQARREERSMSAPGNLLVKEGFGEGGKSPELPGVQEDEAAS

SMILES: O=C(O)c1cc(-c2ccc(C3CCNCC3)cc2)c2ccc(-c3ccc(C(F)(F)F)cc3)cc2c1 [PPTN]
- residual activity [1]: 100%
- inhibition [2]: 9.47%
- residual activity [3]: 100%
- residual activity [4]: 85%
- residual activity [5]: 100%
- residual activity [6]: 100%
- residual activity [7]: 100%
- residual activity [8]: 100%
- residual activity [9]: 100%
- residual activity [10]: 100%
- residual activity [11]: 100%
- residual activity [12]: 100%
- residual activity [13]: 100%
- residual activity [14]: 100%
- residual activity [15]: 100%
- residual activity [16]: 100%
- residual activity [17]: 100%
- residual activity [18]: 100%
- Ki [19]: 2560 nM
- residual activity [20]: 100%
- inhibition [21]: -3.98%
- residual activity [22]: 100%
- residual activity [23]: 100%
- residual activity [24]: 100%
- residual activity [25]: 100%
- inhibition [26]: -2.04%
- residual activity [27]: 100%
- residual activity [28]: 100%
- residual activity [29]: 100%
- residual activity [30]: 100%
- residual activity [31]: 100%
- residual activity [32]: 100%
- residual activity [33]: 100%
- residual activity [34]: 100%
- residual activity [35]: 100%
- residual activity [36]: 100%
- residual activity [37]: 100%
- inhibition (D(1B) dopamine receptor): 73.7%
- residual activity [38]: 100%
- inhibition [39]: 36.4%
- residual activity [40]: 100%
- residual activity [41]: 99%
- residual activity [42]: 100%
- residual activity [43]: 100%

SMILES: Cc1c(C(=O)O)cc(-c2ccc(C3CCNCC3)cc2)c2ccc(-c3ccc(C(F)(F)F)cc3)cc12 [PPTN-NC]
- residual activity [1]: 100%
- inhibition [2]: 0.06%
- residual activity [3]: 100%
- residual activity [4]: 82%
- residual activity [5]: 100%
- residual activity [6]: 100%
- residual activity [7]: 100%
- residual activity [8]: 100%
- residual activity [9]: 100%
- residual activity [10]: 100%
- residual activity [11]: 100%
- residual activity [12]: 100%
- residual activity [13]: 100%
- residual activity [14]: 100%
- residual activity [15]: 100%
- residual activity [16]: 100%
- residual activity [17]: 100%
- residual activity [18]: 100%
- Ki [19]: 1840 nM
- residual activity [20]: 100%
- inhibition [21]: 1.21%
- residual activity [22]: 100%
- residual activity [23]: 100%
- residual activity [24]: 100%
- residual activity [25]: 100%
- inhibition [26]: -7.91%
- residual activity [27]: 100%
- residual activity [28]: 100%
- residual activity [29]: 100%
- residual activity [30]: 100%
- residual activity [31]: 100%
- residual activity [32]: 95%
- residual activity [33]: 100%
- residual activity [34]: 100%
- residual activity [35]: 100%
- residual activity [36]: 100%
- residual activity [37]: 100%
- inhibition (D(1B) dopamine receptor): 58.1%
- residual activity [38]: 100%
- inhibition [39]: 32%
- residual activity [40]: 100%
- residual activity [41]: 84%
- residual activity [42]: 100%
- residual activity [43]: 97%
